Data taken from ChEMBL document CHEMBL2169795, “Macrocyclic peptoid-Peptide hybrids as inhibitors of class I histone deacetylases” (ACS Med Chem Lett, 2012).
Activity calls are given as the source filed them. The rule behind the calls is not given here.

Key:
HCT-116 = test: Cytotoxicity against human HCT116 cells after 72 hrs by XTT assay; type: functional; settings: HCT-116, 72 h
[1] = Cytotoxicity against human KYO1 cells after 72 hrs by XTT assay; type: functional; settings: KYO1, 72 h
K562 = test: Cytotoxicity against human K562 cells after 72 hrs by XTT assay; type: functional; settings: K562, 72 h
HeLa = test: Cytotoxicity against human HeLa cells after 72 hrs by XTT assay; type: functional
MCF7 = test: Cytotoxicity against human MCF7 cells after 72 hrs by XTT assay; type: functional; settings: MCF7, 72 h
Histone deacetylase = test: Inhibition of HDAC in human HeLa cell extracts by fluorimetric assay; type: protein assay
Histone deacetylase 1 = Histone deacetylase 1 (Homo sapiens, UniProt Q13547); test: Inhibition of human recombinant HDAC1 using Ac-Lys(Ac)-7-amino-4-methylcoumarin as substrate after 30 mins by trypsin-coupled fluorogenic assay
Sequence of Histone deacetylase 1 (Q13547 whole entry): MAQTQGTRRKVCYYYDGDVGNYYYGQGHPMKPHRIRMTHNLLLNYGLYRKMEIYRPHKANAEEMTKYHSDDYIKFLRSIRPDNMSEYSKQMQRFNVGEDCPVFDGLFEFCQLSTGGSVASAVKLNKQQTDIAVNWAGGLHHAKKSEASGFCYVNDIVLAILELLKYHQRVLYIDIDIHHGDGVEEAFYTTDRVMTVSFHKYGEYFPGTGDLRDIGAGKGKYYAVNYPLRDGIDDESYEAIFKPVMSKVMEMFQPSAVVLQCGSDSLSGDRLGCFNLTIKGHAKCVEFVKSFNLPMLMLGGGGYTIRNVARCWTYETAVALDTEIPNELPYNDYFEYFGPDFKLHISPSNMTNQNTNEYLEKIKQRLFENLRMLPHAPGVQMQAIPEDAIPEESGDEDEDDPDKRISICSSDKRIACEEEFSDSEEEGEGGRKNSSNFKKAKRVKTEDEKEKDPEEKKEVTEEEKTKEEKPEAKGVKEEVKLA

[2] = molecular target: T1, Protein deacetylase HDAC6 (Homo sapiens, UniProt Q9UBN7); test: Inhibition of human recombinant HDAC6 using Ac-Lys(Ac)-7-amino-4-methylcoumarin as substrate after 30 mins by trypsin-coupled fluorogenic assay
T1 sequence (Q9UBN7 whole entry): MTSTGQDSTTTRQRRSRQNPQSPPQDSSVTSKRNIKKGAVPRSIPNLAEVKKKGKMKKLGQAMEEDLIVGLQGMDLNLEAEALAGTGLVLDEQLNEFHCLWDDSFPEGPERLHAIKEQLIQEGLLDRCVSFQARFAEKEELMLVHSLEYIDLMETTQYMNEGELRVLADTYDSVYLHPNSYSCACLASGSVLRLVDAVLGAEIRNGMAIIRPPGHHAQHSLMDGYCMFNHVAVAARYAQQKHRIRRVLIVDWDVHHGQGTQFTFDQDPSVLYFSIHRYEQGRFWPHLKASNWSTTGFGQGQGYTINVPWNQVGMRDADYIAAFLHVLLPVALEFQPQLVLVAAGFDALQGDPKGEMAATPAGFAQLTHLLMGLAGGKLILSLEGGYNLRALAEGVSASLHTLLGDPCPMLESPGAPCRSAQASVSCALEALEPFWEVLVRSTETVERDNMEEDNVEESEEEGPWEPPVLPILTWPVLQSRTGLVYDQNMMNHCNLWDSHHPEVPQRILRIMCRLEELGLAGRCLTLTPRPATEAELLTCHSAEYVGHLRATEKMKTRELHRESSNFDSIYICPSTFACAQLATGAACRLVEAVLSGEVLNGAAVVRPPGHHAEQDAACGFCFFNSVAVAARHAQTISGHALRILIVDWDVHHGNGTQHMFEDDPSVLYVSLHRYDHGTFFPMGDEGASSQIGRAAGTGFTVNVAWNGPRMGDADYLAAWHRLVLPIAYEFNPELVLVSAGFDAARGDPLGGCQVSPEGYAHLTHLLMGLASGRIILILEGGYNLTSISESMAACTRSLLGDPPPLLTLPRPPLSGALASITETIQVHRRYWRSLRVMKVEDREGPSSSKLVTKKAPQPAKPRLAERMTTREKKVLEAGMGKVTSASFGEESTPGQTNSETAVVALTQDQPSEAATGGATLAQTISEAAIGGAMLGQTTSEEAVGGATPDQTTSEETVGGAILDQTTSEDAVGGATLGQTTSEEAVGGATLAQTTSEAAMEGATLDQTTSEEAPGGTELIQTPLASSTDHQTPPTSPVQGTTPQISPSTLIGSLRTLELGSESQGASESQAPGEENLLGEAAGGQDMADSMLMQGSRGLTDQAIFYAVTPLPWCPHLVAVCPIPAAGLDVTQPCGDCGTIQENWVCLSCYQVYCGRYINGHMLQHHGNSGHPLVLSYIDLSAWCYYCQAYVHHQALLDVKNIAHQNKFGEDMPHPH

[3] = molecular target: Histone deacetylase 3/Nuclear receptor corepressor 2 (HDAC3/NCoR2) (Homo sapiens, UniProt O15379); test: Inhibition of human recombinant HDAC3/NCoR2 using Ac-Lys(Ac)-7-amino-4-methylcoumarin as substrate after 30 mins by trypsin-coupled fluorogenic assay; type: protein-complex assay
Sequence of Histone deacetylase 3/Nuclear receptor corepressor 2 (HDAC3/NCoR2) (O15379 whole entry): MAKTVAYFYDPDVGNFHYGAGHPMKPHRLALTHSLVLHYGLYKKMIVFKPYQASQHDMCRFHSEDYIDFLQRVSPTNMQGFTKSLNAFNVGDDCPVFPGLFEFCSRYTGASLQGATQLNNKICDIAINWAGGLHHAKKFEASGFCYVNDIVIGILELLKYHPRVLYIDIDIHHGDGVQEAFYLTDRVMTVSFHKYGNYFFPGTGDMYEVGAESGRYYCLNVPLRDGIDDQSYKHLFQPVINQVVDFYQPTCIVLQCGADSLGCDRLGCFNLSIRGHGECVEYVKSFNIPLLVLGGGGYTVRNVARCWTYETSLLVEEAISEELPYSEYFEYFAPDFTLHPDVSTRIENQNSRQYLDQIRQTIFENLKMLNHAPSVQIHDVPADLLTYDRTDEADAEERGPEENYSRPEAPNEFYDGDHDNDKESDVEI
Sequence of Histone deacetylase 3/Nuclear receptor corepressor 2 (HDAC3/NCoR2) (Q9Y618 whole entry, further chain): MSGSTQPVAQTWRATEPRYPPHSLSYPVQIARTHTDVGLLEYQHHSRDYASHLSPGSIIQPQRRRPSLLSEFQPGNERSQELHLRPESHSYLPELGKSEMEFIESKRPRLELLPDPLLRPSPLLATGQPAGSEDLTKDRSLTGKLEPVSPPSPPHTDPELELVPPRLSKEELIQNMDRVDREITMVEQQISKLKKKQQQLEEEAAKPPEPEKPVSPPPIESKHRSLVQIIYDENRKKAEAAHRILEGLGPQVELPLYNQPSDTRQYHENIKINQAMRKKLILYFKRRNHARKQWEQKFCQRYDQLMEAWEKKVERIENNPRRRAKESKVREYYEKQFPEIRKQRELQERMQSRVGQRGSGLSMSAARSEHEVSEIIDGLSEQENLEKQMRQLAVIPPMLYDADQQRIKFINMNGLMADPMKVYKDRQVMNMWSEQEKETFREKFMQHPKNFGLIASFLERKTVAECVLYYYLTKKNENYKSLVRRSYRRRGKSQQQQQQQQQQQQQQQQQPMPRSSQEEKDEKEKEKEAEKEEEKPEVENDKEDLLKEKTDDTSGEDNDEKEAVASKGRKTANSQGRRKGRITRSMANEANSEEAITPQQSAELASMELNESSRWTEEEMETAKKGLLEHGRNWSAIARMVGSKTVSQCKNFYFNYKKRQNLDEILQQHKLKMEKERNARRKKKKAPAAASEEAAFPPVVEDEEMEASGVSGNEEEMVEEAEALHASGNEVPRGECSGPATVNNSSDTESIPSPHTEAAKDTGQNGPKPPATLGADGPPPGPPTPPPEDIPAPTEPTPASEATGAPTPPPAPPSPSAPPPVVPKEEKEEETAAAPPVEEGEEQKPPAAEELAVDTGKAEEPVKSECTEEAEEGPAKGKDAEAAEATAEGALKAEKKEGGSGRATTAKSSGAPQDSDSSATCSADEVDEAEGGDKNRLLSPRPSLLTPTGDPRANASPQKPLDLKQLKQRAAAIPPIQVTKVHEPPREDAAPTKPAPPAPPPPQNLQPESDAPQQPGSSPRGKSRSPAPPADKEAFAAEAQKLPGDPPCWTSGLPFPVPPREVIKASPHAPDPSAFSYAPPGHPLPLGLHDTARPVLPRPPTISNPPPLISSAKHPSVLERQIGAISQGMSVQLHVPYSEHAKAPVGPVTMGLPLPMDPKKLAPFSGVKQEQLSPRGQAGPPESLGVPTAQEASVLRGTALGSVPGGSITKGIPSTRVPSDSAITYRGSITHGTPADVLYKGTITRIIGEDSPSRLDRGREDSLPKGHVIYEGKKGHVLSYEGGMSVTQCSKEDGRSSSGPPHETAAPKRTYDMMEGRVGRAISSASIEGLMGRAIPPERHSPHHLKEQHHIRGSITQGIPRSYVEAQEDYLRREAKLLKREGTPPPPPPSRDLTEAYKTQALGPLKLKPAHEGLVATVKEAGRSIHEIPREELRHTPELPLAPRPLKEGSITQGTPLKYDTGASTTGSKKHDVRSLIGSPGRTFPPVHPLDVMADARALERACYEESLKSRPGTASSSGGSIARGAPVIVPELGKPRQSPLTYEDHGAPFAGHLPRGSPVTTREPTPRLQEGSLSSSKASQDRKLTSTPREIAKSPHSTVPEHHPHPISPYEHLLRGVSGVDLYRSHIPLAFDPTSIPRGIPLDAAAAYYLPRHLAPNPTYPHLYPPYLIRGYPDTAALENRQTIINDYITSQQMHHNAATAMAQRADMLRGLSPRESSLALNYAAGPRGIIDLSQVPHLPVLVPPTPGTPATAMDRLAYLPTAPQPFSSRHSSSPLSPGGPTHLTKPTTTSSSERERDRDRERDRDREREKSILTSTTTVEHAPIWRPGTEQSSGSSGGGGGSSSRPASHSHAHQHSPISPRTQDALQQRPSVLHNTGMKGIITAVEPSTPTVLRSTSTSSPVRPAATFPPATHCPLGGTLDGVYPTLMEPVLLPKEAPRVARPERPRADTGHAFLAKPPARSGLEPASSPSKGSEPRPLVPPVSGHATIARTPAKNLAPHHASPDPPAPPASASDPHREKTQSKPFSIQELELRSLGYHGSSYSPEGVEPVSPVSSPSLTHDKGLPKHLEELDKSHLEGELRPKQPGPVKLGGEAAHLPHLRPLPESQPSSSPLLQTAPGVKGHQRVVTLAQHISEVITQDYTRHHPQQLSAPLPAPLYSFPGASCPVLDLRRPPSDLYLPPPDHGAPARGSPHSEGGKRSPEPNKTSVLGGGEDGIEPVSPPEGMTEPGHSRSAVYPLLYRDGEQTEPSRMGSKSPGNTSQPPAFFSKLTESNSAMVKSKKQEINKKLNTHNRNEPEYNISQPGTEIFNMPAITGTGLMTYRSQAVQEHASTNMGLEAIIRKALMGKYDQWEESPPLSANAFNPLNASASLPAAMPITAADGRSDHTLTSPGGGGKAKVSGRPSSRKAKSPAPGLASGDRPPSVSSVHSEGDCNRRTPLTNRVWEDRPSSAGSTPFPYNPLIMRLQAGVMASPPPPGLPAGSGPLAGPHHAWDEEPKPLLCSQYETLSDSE

[4] = molecular target: T2, Protein deacetylase HDAC6 (Homo sapiens) (UniProt Q9UBN7); settings: Jurkat, 2 to 20 uM
T2 sequence (whole entry): T1 sequence (Q9UBN7 whole entry)
Description: Inhibition of HDAC6 in human Jurkat cells assessed as increase of acetylated alpha-tubulin level at 2 to 20 uM after 24 hrs by Western blot analysis

Histone deacetylase 2 = Histone deacetylase 2 (Homo sapiens, UniProt Q92769); test: Inhibition of human recombinant HDAC2 using Ac-Lys(Ac)-7-amino-4-methylcoumarin as substrate after 30 mins by trypsin-coupled fluorogenic assay
Sequence of Histone deacetylase 2 (Q92769 whole entry): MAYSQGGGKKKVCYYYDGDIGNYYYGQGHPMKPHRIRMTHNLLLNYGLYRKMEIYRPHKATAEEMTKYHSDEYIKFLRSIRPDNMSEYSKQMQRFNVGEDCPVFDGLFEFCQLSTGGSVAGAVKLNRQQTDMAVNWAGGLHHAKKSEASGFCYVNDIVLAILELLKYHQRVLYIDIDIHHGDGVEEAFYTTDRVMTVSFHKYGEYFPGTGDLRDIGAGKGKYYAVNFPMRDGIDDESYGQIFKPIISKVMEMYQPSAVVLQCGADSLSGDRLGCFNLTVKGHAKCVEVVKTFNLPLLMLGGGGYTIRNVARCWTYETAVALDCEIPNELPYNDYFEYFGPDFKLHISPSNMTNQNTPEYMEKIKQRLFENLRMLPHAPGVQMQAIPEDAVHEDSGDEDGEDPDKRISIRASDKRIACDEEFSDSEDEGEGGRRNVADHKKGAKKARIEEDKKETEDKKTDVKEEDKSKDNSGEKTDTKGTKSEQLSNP

Histone deacetylase 8 = molecular target: T3, Histone deacetylase 8 (Homo sapiens, UniProt Q9BY41); test: Inhibition of human recombinant HDAC8 using Arg-His-Lys(Ac)-Lys(Ac)-AMC as substrate after 30 mins by trypsin-coupled fluorogenic assay
T3 sequence (Q9BY41 whole entry): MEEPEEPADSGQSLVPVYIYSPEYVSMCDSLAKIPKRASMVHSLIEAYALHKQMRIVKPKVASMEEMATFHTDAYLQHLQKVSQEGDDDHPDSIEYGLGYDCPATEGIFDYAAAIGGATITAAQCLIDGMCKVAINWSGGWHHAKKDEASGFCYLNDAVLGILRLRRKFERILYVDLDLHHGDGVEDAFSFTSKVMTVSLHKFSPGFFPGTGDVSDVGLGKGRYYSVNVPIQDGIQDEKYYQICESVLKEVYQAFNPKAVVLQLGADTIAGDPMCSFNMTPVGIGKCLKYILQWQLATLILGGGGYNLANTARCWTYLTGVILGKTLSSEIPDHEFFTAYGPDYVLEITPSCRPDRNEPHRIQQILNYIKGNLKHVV

[5] = molecular target: Histone deacetylase (Homo sapiens) (UniProt Q13547+O15379+Q9UBN7+Q92769+Q9UQL6+Q8WUI4+Q9BY41+Q96DB2+P56524+Q9UKV0+Q969S8); settings: Jurkat, 2 to 20 uM
Description: Inhibition of HDAC in human Jurkat cells assessed as increase of acetylated-histone H3 level at 2 to 20 uM after 24 hrs by Western blot analysis

## CCC(=O)CCCCC[C@@H]1NC(=O)[C@H]2CCCCN2C(=O)[C@H]([C@@H](C)CC)NC(=O)[C@H](Cc2cn(OC)c3ccccc23)NC1=O [APICIDIN]
HCT-116
  GI50: 1 µM
[1]
  GI50: 2.7 µM
K562
  GI50: 1.5 µM
HeLa
  GI50: 2 µM
MCF7
  GI50: 5 µM

## CCC(=O)CCCCC[C@@H]1NC(=O)[C@H](C)N(C)C(=O)CCN(CC(C)C)C(=O)CN(CC2CCCCC2)C1=O
Histone deacetylase
  IC50: > 100 µM

## CCC(=O)CCCCC[C@@H]1NC(=O)[C@H](CCCNC(=N)N)NC(=O)CCN(CC(C)C)C(=O)CN(CCc2c[nH]c3ccccc23)C1=O
Histone deacetylase
  IC50: 0.06 µM
Histone deacetylase 1
  IC50: 0.18 µM
[2]
  IC50: > 10 µM
HCT-116
  GI50: > 50 µM
[1]
  GI50: > 50 µM
[3]
  IC50: 0.1 µM
[4]
  inhibition: inactive
K562
  GI50: > 50 µM
HeLa
  GI50: > 50 µM
Histone deacetylase 2
  IC50: 0.3 µM
Histone deacetylase 8
  IC50: 0.75 µM
[5]
  inhibition: Active
MCF7
  GI50: > 50 µM

## CCC(=O)CCCCC[C@@H]1NC(=O)[C@H](CCCNC(=N)N)NC(=O)CCN(CC=C(C)C)C(=O)CN(CCc2c[nH]c3ccccc23)C1=O
Histone deacetylase
  IC50: 0.25 µM
Histone deacetylase 1
  IC50: 0.7 µM
[2]
  IC50: > 10 µM
HCT-116
  GI50: > 50 µM
[3]
  IC50: 0.27 µM
HeLa
  GI50: > 50 µM
Histone deacetylase 2
  IC50: 1.2 µM
MCF7
  GI50: > 50 µM

## CCC(=O)CCCCC[C@@H]1NC(=O)[C@H](C)N(C)C(=O)CCN(CC(C)C)C(=O)CN(CCc2c[nH]c3ccccc23)C1=O
Histone deacetylase
  IC50: 1 µM
Histone deacetylase 1
  IC50: 0.54 µM
[2]
  IC50: > 10 µM
HCT-116
  GI50: 28 µM
[1]
  GI50: 18 µM
[3]
  IC50: 0.65 µM
K562
  GI50: 15 µM
HeLa
  GI50: 30 µM
Histone deacetylase 2
  IC50: 2 µM
MCF7
  GI50: > 50 µM

## CCC(=O)CCCCC[C@@H]1NC(=O)[C@H](C)N(C)C(=O)C[C@H](CC(C)C)NC(=O)CN(CCc2c[nH]c3ccccc23)C1=O
Histone deacetylase
  IC50: > 10 µM

## CCC(=O)CCCCC[C@@H]1NC(=O)[C@H](C)N(C)C(=O)CCN(CC(C)C)C(=O)CN(Cc2cccc3ccccc23)C1=O
Histone deacetylase
  IC50: 18 µM

## CCC(=O)CCCCC[C@@H]1NC(=O)[C@H](C)N(C)C(=O)C[C@H](CC(C)C)NC(=O)[C@H](Cc2c[nH]c3ccccc23)NC1=O
[2]
  IC50: > 10 µM
[1]
  GI50: 7.5 µM
K562
  GI50: 7 µM
HeLa
  GI50: 4 µM
Histone deacetylase 2
  IC50: 0.07 µM
Histone deacetylase 8
  IC50: 2.2 µM
MCF7
  GI50: 18 µM

## CCC(=O)CCCCC[C@@H]1NC(=O)[C@H](C)N(C)C(=O)CCN(CC(C)C)C(=O)CN(Cc2ccc(C)cc2)C1=O
Histone deacetylase
  IC50: > 100 µM

## CCC(=O)CCCCC[C@@H]1NC(=O)[C@H](C)N(C)C(=O)CCN(CC(C)C)C(=O)CN(CCc2ccccc2)C1=O
Histone deacetylase
  IC50: > 100 µM

## CCC(=O)CCCCCN1CC(=O)N(CCc2c[nH]c3ccccc23)CC(=O)N(CC(C)C)CCC(=O)N(C)[C@@H](C)C1=O
Histone deacetylase
  IC50: > 10 µM

## CCC(=O)CCCCC[C@@H]1NC(=O)[C@H](C)N(C)C(=O)CCN(CC(C)C)C(=O)CN(Cc2ccccc2)C1=O
Histone deacetylase
  IC50: > 100 µM

## CCC(=O)CCCCCN1CC(=O)N(Cc2cccc3ccccc23)CC(=O)N(CC(C)C)CCC(=O)N[C@@H](C)C1=O
Histone deacetylase
  IC50: > 10 µM

## CCC(=O)CCCCC[C@@H]1NC(=O)[C@H](C)N(C)C(=O)CCN(CC(C)C)C(=O)[C@H](Cc2c[nH]c3ccccc23)NC1=O
Histone deacetylase
  IC50: > 10 µM

## CCC(=O)CCCCC[C@@H]1NC(=O)[C@H](CCCCNC(C)=O)NC(=O)CCN(CC(C)C)C(=O)CN(CCc2c[nH]c3ccccc23)C1=O
Histone deacetylase
  IC50: 0.21 µM
Histone deacetylase 1
  IC50: 0.2 µM
[2]
  IC50: > 10 µM
HCT-116
  GI50: 50 µM
[1]
  GI50: 10 µM
[3]
  IC50: 0.32 µM
K562
  GI50: 1.5 µM
HeLa
  GI50: 38 µM
Histone deacetylase 2
  IC50: 0.37 µM
MCF7
  GI50: > 50 µM
